Series [1] has as its target T1, CB1 receptor (HEK293 CB1 β-arrestin cells) (Homo sapiens, UniProt P21554).
T1 construct: host or cells: HEK293 CB1 β-arrestin cells (PathHunter)
In words: PathHunter β-Arrestin assay, enhancement of anandamide stimulation. Format: cell-based. The settings on record: maximum % increase in stimulation caused by anandamide; for Potency % Enhancement 1000 nM: 1000 nM test compound; for Potency % Enhancement 300 nM: 300 nM test compound; for Potency % Enhancement 100 nM: 100 nM test compound. From the text: PathHunter™ β-Arrestin Assays
β-Arrestins are multifunctional intracellular proteins that interact with a structurally diverse group of cell surface receptors including GPCRs, to regulate cellular functions (see, e.g., Violin and Lefkowitz, 2007).
PathHunter™ enzyme fragment complementation is the most important method to measure β-arrestin recruitment. PathHunter™ β-Arrestin assays developed by DiscoveRX are revolutionary high-throughput screening assays for monitoring GPCR activation following ligand stimulation, without an imaging instrument, fluorescent protein tag, or radioactivity.
Instead, the assays detect GPCR activation through binding of β-arrestin to the expressed GPCR of interest, and measure the interaction of the two proteins using enzyme fragment complementation (EFC). The EFC approach offers a range of benefits for screening; including signal amplification and robust performance.
The larger portion of β-gal, termed EA for enzyme acceptor, is fused to the C-terminus of β-arrestin. The smaller, complementing fragment of β-gal, the ProLink™ tag, is expressed as a fusion protein with the GPCR of interest at the C-terminus. Upon activation, the GPCR is bound by β-arrestin. The interaction of β-arrestin and the GPCR forces the interaction of ProLink and EA, thus allowing complementation of the two fragments of β-gal and the formation of a functional enzyme capable of hydrolyzing substrate and generating a […] signal.
Using the PathHunter™ CB1 kit from DiscoveRX, a cannabinoid CB1 receptor agonist is added and activates the receptor, EA, which is fused to the C-terminus of β-arrestin, and then interacts with the ProLink™ tag which is fused to the CB1 receptor. This will result in the […] signal that is recorded by a luminescence plate reader. The […] signal is directly related to the activation of the receptor, therefore a higher concentration of agonist will yield a larger […] signal. The cannabinoid agonist is added in increasing concentrations to obtain an agonist dose response curve. With pre-incubation of a potential allosteric modulator, either an enhancement of agonist signalling with an allosteric enhancer or a decrease in the maximal response of the agonist with an allosteric inhibitor is expected.
All raw data are obtained as luminescence (relative light units), and are normalised and presented as a percentage of the maximal response for the endogenous cannabinoid CB1 receptor agonist anandamide (N-arachidonoylethanolamine).
The PathHunter™ β-Arrestin assay (from DiscoveRX, Fremont, USA) was performed as follows. HEK293 CB1 β-arrestin cells were plated 48 hours before use and incubated at 37° C., 5% CO2 in a humidified incubator. Test compounds were dissolved in dimethylsulfoxide (DMSO) and diluted in optimized cell culture media (OCC, as supplied by DiscoveRX) media to the required concentrations. 5 μL of test compound or vehicle solution was added to each well and incubated for 60 minutes at 37° C., 5% CO2 in a humidified incubator. 5 μL of increasing concentrations of anandamide was added to each well followed by a 90 minute incubation at 37° C., 5% CO2 in a humidified incubator. 55 μL of detection reagent (as supplied by DiscoveRX) was then added, followed by a further 90 minute incubation at room temperature in the dark. Chemiluminescence, reported in relative light units (RLU—a dimensionless value, standardised as a % of maximum stimulation with anandamide), was measured on a standard luminescence plate reader.
Data were plotted as % of maximal stimulation (Emax) caused by agonist versus the logarithm of concentration of agonist, in the presence or absence of a fixed concentration of test compound (modulator) or vehicle. For example, stimulation in the presence of agonist alone will give a value for stimulation expressed in RLU, which can be expressed as a range from 0% (at lowest agonist concentration, e.g., 1 nM) to 100% (at the highest agonist concentration, e.g., 10 μM). […]

A further series is described as follows: in vitro. The settings on record: both, human, microsomes, pH 7.4. The procedure: Human and Rat Liver Microsomal Stability Assay
The metabolic stability of the compounds of the Formula (I) was measured by determination of the rate of compound disappearance when incubated in the presence of both human and rat liver microsomes. Liver microsomes are prepared from the endoplasmic reticulum of hepatocytes and are the primary source of the most important enzymes (cytochrome P450) involved in drug metabolism. Study of drug stability in the presence of liver microsomes is accepted as a valuable model permitting rapid prediction of in vivo drug stability.
Human and rat liver microsomes were obtained from a commercial source. Test compounds (3 μM) were incubated with pooled liver microsomes (male and female). Samples were incubated for a 45 minute period and removed at 5 time points and test compounds were analysed by LC-MS/MS.
The final incubation volume was 25 μL. A control incubation was included for each compound tested, where 0.1 M phosphate buffer pH 7.4 was added instead of NADPH. The control compounds testosterone and 7-hydroxycoumarin were included in each experiment and all incubations were performed singularly for each compound.
Each compound was incubated for 0, 5, 15, 30, and 45 minutes. The control (minus NADPH) was incubated for 45 minutes only. The reactions were stopped by the addition of 50 μL methanol containing internal standard at the appropriate time points. The incubation plates were centrifuged at 2500 rpm for 20 minutes at 4° C. to precipitate the protein.
Following protein precipitation, the sample supernatants were combined in cassettes of up to 4 compounds and analysed using standard LC-MS/MS conditions.
From a plot of the natural logarithm of the peak area ratio (i.e., the ratio of compound peak area:internal standard peak area) against time, the gradient of the line was determined. Subsequently, half-life and intrinsic clearance were calculated using the equations below: Eliminated Rate Constant (k)=(−Gradient).

In series [2] the target is T2, CB1 receptor (Mus musculus, UniProt P47746). Also noted: from the CB1 receptor in mouse brain membranes; host or cells: mouse brain membranes. As to conditions: mouse brain membranes; cited from earlier work.
T2 sequence (P47746 whole entry): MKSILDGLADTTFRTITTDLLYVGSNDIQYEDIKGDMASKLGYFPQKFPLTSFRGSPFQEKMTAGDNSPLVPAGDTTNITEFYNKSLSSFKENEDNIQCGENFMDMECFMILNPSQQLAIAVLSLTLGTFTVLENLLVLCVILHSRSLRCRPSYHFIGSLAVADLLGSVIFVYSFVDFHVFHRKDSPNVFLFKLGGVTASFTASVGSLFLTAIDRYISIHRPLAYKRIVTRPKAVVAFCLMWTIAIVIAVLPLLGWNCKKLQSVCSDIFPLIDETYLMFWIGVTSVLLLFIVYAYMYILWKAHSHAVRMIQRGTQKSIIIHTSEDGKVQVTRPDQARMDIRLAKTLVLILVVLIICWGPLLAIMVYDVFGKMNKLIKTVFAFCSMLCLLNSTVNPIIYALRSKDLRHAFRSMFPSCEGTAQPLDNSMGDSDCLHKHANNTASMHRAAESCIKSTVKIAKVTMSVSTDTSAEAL
For series [3], the target named is T2, CB1 receptor. As to conditions: equilibrium binding assay; cited from earlier work.

T1 sequence (P21554 whole entry): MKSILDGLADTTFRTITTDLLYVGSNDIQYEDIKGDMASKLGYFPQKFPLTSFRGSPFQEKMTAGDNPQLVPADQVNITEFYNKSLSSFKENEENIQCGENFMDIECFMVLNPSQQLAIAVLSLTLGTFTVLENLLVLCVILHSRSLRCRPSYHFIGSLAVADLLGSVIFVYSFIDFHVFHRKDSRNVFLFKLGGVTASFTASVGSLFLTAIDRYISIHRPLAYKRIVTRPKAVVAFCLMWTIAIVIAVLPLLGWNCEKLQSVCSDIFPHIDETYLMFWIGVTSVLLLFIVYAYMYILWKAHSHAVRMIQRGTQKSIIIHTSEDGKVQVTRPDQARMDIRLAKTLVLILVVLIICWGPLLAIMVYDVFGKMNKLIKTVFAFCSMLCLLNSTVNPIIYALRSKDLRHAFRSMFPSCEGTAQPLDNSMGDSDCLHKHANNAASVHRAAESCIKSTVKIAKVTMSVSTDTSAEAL

Regarding `Cc1ccc2c(C(C[N+](=O)[O-])c3ccccc3)c(-c3ccccc3)[nH]c2c1` (stereo not shown) [ABD999], the “Potency % Enhancement 1000 nM” value in series [1] is given as 76.8%. In the series “in vitro”, this compound returned a half-life at 3 μM of 47.7 min and a microsomal CLint at 3 μM of 29.1 µL/min/mg.
In the case of `O=C(O)CC(c1ccccc1)c1c(-c2ccccc2)[nH]c2ccc(Cl)cc12` (stereo not shown) [ABD1003], the “Potency % Enhancement 1000 nM” value in series [1] came out at 0%.
Take `CS(=O)(=O)NCC(c1ccccc1)c1c(-c2ccccc2)[nH]c2ccccc12` (stereo not shown) [ABD1009]: the “Potency % Enhancement 1000 nM” value in series [1] was 0%.
Still for that read-out and setting: to `NCC(c1ccccc1)c1c(-c2ccccc2)[nH]c2ccccc12` (stereo not shown) [ABD1009a] belongs 0%; to `NC(=O)NCC(c1ccccc1)c1c(-c2ccccc2)[nH]c2ccccc12` (stereo not shown) [ABD1011], 0%; to `c1ccc(-c2[nH]c3ccccc3c2-n2nnnc2-c2ccccc2)cc1` [ABD1077], 0%.
For `c1ccc(-c2[nH]c3ccccc3c2-c2nnnn2-c2ccccc2)cc1` [ABD1078], the “Potency % Enhancement 1000 nM” value in series [1] is listed as 0%.
For the compound `CS(=O)(=O)NC(c1ccccc1)c1c(-c2ccccc2)[nH]c2ccccc12` (stereo not shown) [ABD1097], in series [1], the “Potency % Enhancement 1000 nM” value stood at 0%.
Still for that read-out and setting: as for `O=S(=O)(NC(c1ccccc1)c1c(-c2ccccc2)[nH]c2ccccc12)c1ccccc1` (stereo not shown) [ABD1098], the figure is 0%.
Take `N#CC(C#N)C(c1ccccc1)c1c(-c2ccccc2)[nH]c2ccccc12` (stereo not shown) [ABD1100, 2-(Phenyl(2-phenyl-1H-indol-3-yl)methyl)malononitrile]: in series [1], the “Potency % Enhancement 300 nM” value is 0% and the “Potency % Enhancement 1000 nM” value is listed as 19.6%.
For the compound `O=C(O)CC(c1ccccc1)c1c(-c2ccccc2)[nH]c2ccccc12` (stereo not shown) [ABD1101a], the “Potency % Enhancement 1000 nM” value in series [1] is given as 0%.
Take `N#CCC(c1ccccc1)c1c(-c2ccccc2)[nH]c2ccccc12` (stereo not shown) [ABD1102, 3-Phenyl-3-(2-phenyl-1H-indol-3-yl)propanenitrile]: in series [1], the “Potency % Enhancement 300 nM” value was determined as 0% and the “Potency % Enhancement 1000 nM” value is listed as 21.9%.
Take `NC(=O)CC(c1ccccc1)c1c(-c2ccccc2)[nH]c2ccccc12` (stereo not shown) [ABD1105]: the “Potency % Enhancement 1000 nM” value in series [1] turned out to be 0%.
In the case of `CNC(=O)CC(c1ccccc1)c1c(-c2ccccc2)[nH]c2ccccc12` (stereo not shown) [ABD1106], the “Potency % Enhancement 1000 nM” value in series [1] is given as 0%.
On the same count and under the same terms, as for `c1ccc(-c2[nH]c3ccccc3c2C(Cn2ccnn2)c2ccccc2)cc1` (stereo not shown) [ABD1117], the figure is 0%.
For the compound `NNC(=O)CC(c1ccccc1)c1c(-c2ccccc2)[nH]c2ccccc12` (stereo not shown) [ABD1131], the “Potency % Enhancement 1000 nM” value in series [1] is recorded as 0%.
As for `Cc1ccc2c(C(CC#N)c3ccccc3)c(-c3ccccc3)[nH]c2c1` (stereo not shown) [ABD1132, 3-(6-Methyl-2-phenyl-1H-indol-3-yl)-3-phenylpropanenitrile], in series [1], the “Potency % Enhancement 300 nM” value was determined as 21.6% and the “Potency % Enhancement 1000 nM” value is 80.6%.
For `Cc1ccc2c(C(c3ccccc3)C(C#N)C#N)c(-c3ccccc3)[nH]c2c1` (stereo not shown) [ABD1133, 2-((6-Methyl-2-phenyl-1H-indol-3-yl)(phenyl)methyl)malononitrile] the same measures were 68.7% and 40.4%.
Turning to `FC(F)(F)CC(c1ccccc1)c1c(-c2ccccc2)[nH]c2ccccc12` (stereo not shown) [ABD1137, 2-Phenyl-3-(3,3,3-trifluoro-1-phenylpropyl)-1H-indole], in series [1], the “Potency % Enhancement 300 nM” value is reported as 0% and the “Potency % Enhancement 1000 nM” value stood at 20.7%.
Turning to `O=C(C(c1ccccc1)c1c(-c2ccccc2)[nH]c2ccccc12)C(F)(F)F` (stereo not shown) [ABD1139, 1,1,1-Trifluoro-3-phenyl-3-(2-phenyl-1H-indol-3-yl)propan-2-one], in series [1], the “Potency % Enhancement 300 nM” value was determined as 0% and the “Potency % Enhancement 1000 nM” value is given as 18.6%.
For `Cc1ccc2c(C(CC(F)(F)F)c3ccccc3)c(-c3ccccc3)[nH]c2c1` (stereo not shown) [ABD1145, 6-Methyl-2-phenyl-3-(3,3,3-trifluoro-1-phenylpropyl)-1H-indole], in series [1], the “Potency % Enhancement 100 nM” value was found to be 45.5% and the “Potency % Enhancement 1000 nM” value was 61.9%.
The like results for `Cc1ccc2c(C(C(=O)C(F)(F)F)c3ccccc3)c(-c3ccccc3)[nH]c2c1` (stereo not shown) [ABD1146, 1,1,1-Trifluoro-3-(6-methyl-2-phenyl-1H-indol-3-yl)-3-phenylpropan-2-one] were, in that order, 34.0% and 81.0%.
Take `Cc1ccc2c(C(c3cccs3)C(C#N)C#N)c(-c3ccccc3)[nH]c2c1` (stereo not shown) [ABD1155, 2-((6-Methyl-2-phenyl-1H-indol-3-yl)(thiophen-2-yl)methyl)malononitrile]: the “Potency % Enhancement 1000 nM” value in series [1] was determined as 67.4%.
For `Cc1ccc2c(C(CC(F)(F)F)c3cccs3)c(-c3ccccc3)[nH]c2c1` (stereo not shown) [ABD1187, 6-Methyl-2-phenyl-3-(3,3,3-trifluoro-1-(thiophen-2-yl)propyl)-1H-indole], in “in vitro”, the microsomal CLint at 3 μM turned out to be 5 µL/min/mg.
As for `CCc1c(C(=O)NCCc2ccc(N3CCCCC3)cc2)[nH]c2ccc(Cl)cc12` [ORG27569], the “dissociation of radiolabelled CB1 receptor agonist CP55940 from the CB1 receptor” value (shortened to “dissociation”) at CB1 receptor [2] is recorded as “slowing of the dissociation”. Moreover, at CB1 receptor [3], the “binding of CP55940” value is given as “increase” and the “binding of radiolabelled inverse agonist SR141716A” value was “decrease”.
`CCc1c(C(=O)NCCc2ccc(N(C)C)cc2)[nH]c2ccc(F)cc12` [ORG27759]: the “dissociation” value on CB1 receptor [2] is recorded as “slowing of the dissociation”. Further, on CB1 receptor [3], the “binding of CP55940” value is given as “increase” and the “binding of radiolabelled inverse agonist SR141716A” value is recorded as “decrease”.
In the case of `CCc1c(C(=O)NC2CCN(Cc3ccccc3)C2)[nH]c2ccc(Cl)cc12` (stereo not shown) [ORG29647], the “dissociation” value at CB1 receptor [2] is “slowing of the dissociation”. Moreover, on CB1 receptor [3], the “binding of CP55940” value is recorded as “increase” and the “binding of radiolabelled inverse agonist SR141716A” value is given as “decrease”.

The term half-life denotes the time in which the quantity being followed falls by half. The term microsomal CLint denotes the rate of metabolic loss divided by the concentration. A high value points to rapid turnover.
